Marks after values point to notes of the source that are not given here.
Experiments:
E. coli O157:H7 = E. coli O157:H7 on alfalfa seeds with an initial inoculum of 10^4 CFU/g; format: cell-based, Escherichia coli O157:H7
S. typhimurium DT 104 = experiment: Inactivation of S. typhimurium DT 104 on alfalfa seeds inoculated with 10^8 CFU/g; format: cell-based, Salmonella typhimurium DT104
Procedure: Five isolates of Escherichia coli O157:H7, including strain 932 (human isolate), E009 (beef isolate), E0018 (cattle isolate), E0122 (cattle isolate), E0139 (deer jerky isolate); and five isolates of Salmonella typhimurium DT104, including strain H2662 (cattle isolate), 11942A (cattle isolate), 13068A (cattle isolate), 152N17-1 (dairy isolate) and H3279 (human isolate) were used. Nalidixic acid-resistant (50 μg/ml) E. coli O157:H7 were used to facilitate enumeration. Each E. coli O157:H7 and Salmonella strain was grown in tryptic soy broth (TSB, Beckon Dickinson, Sparks, Md.) at 37° C. for 18 hr. Approximately equal cell numbers of each of the five strains were combined and used as a 5-strain mixture with cell numbers being adjusted by spectrophotometric (Spectronic Instruments, Rochester, N.Y.) determination as described in Zhao et al., (2009) J. Food Prot. 72: 928-936, incorporated herein by reference in its entirety. Bacterial cell numbers were confirmed by plating 0.1 ml of serial dilutions (1:10) in 0.1% peptone on tryptic soy agar (TSA, Beckon Dickinson) and Sorbitol MacConkey agar (SMA, Oxoid, Hampshire, UK) for E. coli O157:H7, and TSA and XLD agar (Beckon Dickinson) for Salmonella and incubating all plates at 37° C. for 24 hr, after which colonies were counted.
Levulinic acid (0.5%) and 0.05% sodium dodecyl sulfate (SDS) obtained from Sigma-Aldrich (St. Louis, Mo.) were tested in combination at 21±2° C. for their antimicrobial activity to E. coli O157:H7 and S. typhimurium on alfalfa seeds as a wash treatment. Calcium hypochlorite (Arch Chemicals, Smyrna, Ga.) at 20,000 μg/ml (ppm) was used as the positive control, and deionized water was used as the negative control.
Before each trial, 25 ml of sterile tap water and 25 g of alfalfa seeds were added to a WHIRL-PAK® bag (Nasco, Fort Atkinson, Wis.) and pummeled in a stomacher blender at 150 rpm for 1 min. Duplicate 0.1 ml portions of the contents were plated on SMA, XLD, and TSA plates to detect E. coli O157:H7 and Salmonella, and enumerate aerobic bacteria counts according to the protocols described below. Only E. coli O157:H7-negative and Salmonella-negative alfalfa seeds were used. Dry seeds (50 g) were individually placed in a sterilized glass beaker (1 L) and 5 ml of a mixture of E. coli O157:H7 or S. typhimurium DT 104 (high inocula at 10^8-10^9 CFU/ml and low inocula at 10^3-10^4 CFU/ml) was inoculated on the surface of the seeds in each glass beaker under a laminar flow hood. A sterile plastic spoon was used to mix for 2 min the seeds with bacterial suspension. The glass beakers were held in a laminar flow hood for 1 hr, 4 hr, 24 hr, 48 hr, and 72 hr with intermittent mixing by plastic spoon before use for chemical treatment.
Inactivation of E. coli O157:H7 and Salmonella on Alfalfa Seeds: Inoculated, dried alfalfa seeds (50 g samples) were placed in a 1000 ml glass beaker containing 200 ml of treatment solution and agitated by a magnetic stir bar at 150 ppm at 21° C. for 0, 1, 2, 5, 10, 20, 30, and 60 min. Following treatment, 25 g of seeds was placed in a stomacher bag containing 25 ml 0.1M phosphate buffer, pH 7.2 (PBS) for levulinic acid plus SDS-treated seeds or neutralizing buffer (50×) for calcium hypochlorite-treated seeds and pummeled for 1 min. at 150 rpm in a stomacher blender (Seward, Ltd., Worthing, England). The suspension was serially (1:10) diluted in 0.1% peptone water and 0.1 ml of each dilution was surface-plated in duplicate onto TSA and Sorbitol MacConkey agar containing 50 μg nalidixic acid/ml (TSA-NA and SMA-NA) for E. coli O157:H7, and on TSA and XLD containing ampicillin (32 μg/ml), tetracycline (16 μg/ml) and streptomycin (64 μg/ml) (TSA+ and XLD+) for S. typhimurium DT 104. All plates were incubated at 37° C. for 48 hr.

[Ca+2].[O-]Cl.[O-]Cl [20,000 ppm, Ca(OCl)2, pH 11.4, Calcium hypochlorite]
E. coli O157:H7 count in sample No. 1-10 (treated supernatant) (E. coli O157:H7; dried at 21° C. for 2 hr, treated for 20 min (10 min in beaker and 10 min in a stomacher bag) at 21° C.): −
E. coli O157:H7 in solutions used for treatment (E. coli O157:H7; enrichment culture after use): negative
E. coli O157:H7 detection in samples treated for 10 min (E. coli O157:H7; none pathogen-positive by direct plating): sporadically positive by enrichment culture assay
S. typhimurium DT 104 counts in seeds (S. typhimurium DT 104; dried for 4 hr, treated for 0 min (actual time 0 delayed by 20 to 30 seconds)): +^b (below the minimum detection level by direct plating (<0.7 log CFU/ml), but positive by enrichment culture.)
S. typhimurium DT 104 counts in seeds (S. typhimurium DT 104; dried for 4 hr, treated for 1 min): −^c
S. typhimurium DT 104 counts in seeds (S. typhimurium DT 104; dried for 4 hr, treated for 2 min): −
S. typhimurium DT 104 counts in seeds (S. typhimurium DT 104; dried for 4 hr, treated for 5 min): −
S. typhimurium DT 104 counts in seeds (S. typhimurium DT 104; dried for 4 hr, treated for 10 min): −
S. typhimurium DT 104 counts in seeds (S. typhimurium DT 104; dried for 4 hr, treated for 20 min): −
S. typhimurium DT 104 counts in seeds (S. typhimurium DT 104; dried for 4 hr, treated for 30 min): −
S. typhimurium DT 104 counts in seeds (S. typhimurium DT 104; dried for 4 hr, treated for 60 min): −
S. typhimurium DT 104 counts in seeds (S. typhimurium DT 104; dried for 24 hr, treated for 0 min): + (below the minimum detection level by direct plating (<0.7 log CFU/ml), but positive by enrichment culture.)
S. typhimurium DT 104 counts in seeds (S. typhimurium DT 104; dried for 24 hr, treated for 1 min): + (below the minimum detection level by direct plating (<0.7 log CFU/ml), but positive by enrichment culture.)
S. typhimurium DT 104 counts in seeds (S. typhimurium DT 104; dried for 24 hr, treated for 2 min): −
S. typhimurium DT 104 counts in seeds (S. typhimurium DT 104; dried for 24 hr, treated for 5 min): −
S. typhimurium DT 104 counts in seeds (S. typhimurium DT 104; dried for 24 hr, treated for 10 min): −
S. typhimurium DT 104 counts in seeds (S. typhimurium DT 104; dried for 24 hr, treated for 20 min): −
S. typhimurium DT 104 counts in seeds (S. typhimurium DT 104; dried for 24 hr, treated for 30 min): −
S. typhimurium DT 104 counts in seeds (S. typhimurium DT 104; dried for 24 hr, treated for 60 min): −
S. typhimurium DT 104 counts in seeds (S. typhimurium DT 104; dried for 48 hr, treated for 0 min): + (below the minimum detection level by direct plating (<0.7 log CFU/ml), but positive by enrichment culture.)
S. typhimurium DT 104 counts in seeds (S. typhimurium DT 104; dried for 48 hr, treated for 1 min): + (below the minimum detection level by direct plating (<0.7 log CFU/ml), but positive by enrichment culture.)
S. typhimurium DT 104 counts in seeds (S. typhimurium DT 104; dried for 48 hr, treated for 2 min): −
S. typhimurium DT 104 counts in seeds (S. typhimurium DT 104; dried for 48 hr, treated for 5 min): −
S. typhimurium DT 104 counts in seeds (S. typhimurium DT 104; dried for 48 hr, treated for 10 min): + (below the minimum detection level by direct plating (<0.7 log CFU/ml), but positive by enrichment culture.)
S. typhimurium DT 104 counts in seeds (S. typhimurium DT 104; dried for 48 hr, treated for 20 min): −
S. typhimurium DT 104 counts in seeds (S. typhimurium DT 104; dried for 48 hr, treated for 30 min): −
S. typhimurium DT 104 counts in seeds (S. typhimurium DT 104; dried for 48 hr, treated for 60 min): −
S. typhimurium DT 104 counts in seeds (S. typhimurium DT 104; dried for 72 hr, treated for 0 min): −
S. typhimurium DT 104 counts in seeds (S. typhimurium DT 104; dried for 72 hr, treated for 1 min): −
S. typhimurium DT 104 counts in seeds (S. typhimurium DT 104; dried for 72 hr, treated for 2 min): −
S. typhimurium DT 104 counts in seeds (S. typhimurium DT 104; dried for 72 hr, treated for 5 min): −
S. typhimurium DT 104 counts in seeds (S. typhimurium DT 104; dried for 72 hr, treated for 10 min): −
S. typhimurium DT 104 counts in seeds (S. typhimurium DT 104; dried for 72 hr, treated for 20 min): + (below the minimum detection level by direct plating (<0.7 log CFU/ml), but positive by enrichment culture.)
S. typhimurium DT 104 counts in seeds (S. typhimurium DT 104; dried for 72 hr, treated for 30 min): + (below the minimum detection level by direct plating (<0.7 log CFU/ml), but positive by enrichment culture.)
S. typhimurium DT 104 counts in seeds (S. typhimurium DT 104; dried for 72 hr, treated for 60 min): −
Salmonella detection after treatment (S. typhimurium DT 104; seeds dried for 4 hr, after 5 min of treatment): no detectable Salmonella
Salmonella detection after treatment (S. typhimurium DT 104; seeds dried for 24 hr, 48 hr, or 72 hr, treated for 5 min): levels only detectable by selective enrichment culture
